Measurements as given in patent US12473262B2, “Aryl hydrocarbon receptor activators” (Oregon State University, priority 2019, dated 2025).

What was measured:
[1] = mouse, microsomes, 0.5 h, 1 μM, pH 7.4
Description: (§1) The assessment of metabolic stability of testing compounds was performed using human, mouse, rat, dog and monkey liver microsomes (20 mg protein/ml). Each reaction mixture contained 42.5 μL of 0.1 M potassium phosphate buffer pH 7.4, containing respective LM protein (final concentration 0.5 mg/ml). 2.5 μL of the compound stock solution was added in it (1 μM final concentration). The reaction was initiated by the addition of 5 μL NADPH solution (final Concentration 1 mM). At different time points (0, 5, 15, and 30 minutes), samples were quenched with 200 μL of cold acetonitrile containing ISTD Propranolol. Samples were centrifuged at 3500 rpm for 20 mM at 4° C. Supernatant was subjected to LC-MS/MS analysis for quantification. Verapamil was used as a positive control.

[2] = rat, microsomes, 0.5 h, 1 μM, pH 7.4
Description: as §1

[3] = in vitro; details: rat, microsomes, pH 7.4
Description: as §1

[4] = in vitro; details: human, microsomes, pH 7.4
Description: as §1

[5] = in vitro; details: mouse, microsomes, pH 7.4
Description: as §1

[6] = human, microsomes, 0.5 h, 1 μM, pH 7.4
Description: as §1

[7] = molecular target: aryl hydrocarbon receptor (AhR) (Mus musculus (Mouse), UniProt P30561); assay: AhR ligand screening: AhRE-luciferase reporter in transfected Hepa1 cells; format: cell-based; details: for Fold @ 1 nM: fold change of luciferase expression at 1 nM test compound relative to vehicle (0.1% DMSO); for Fold @ 100 nM: fold change of luciferase expression at 100 nM test compound relative to vehicle (0.1% DMSO); for Fold @ 10 uM: fold change of luciferase expression at 10 uM test compound relative to vehicle (0.1% DMSO); for Fold relative to benchmark @ 100 nM: luciferase expression at 100 nM test compound relative to 100 nM benchmark compound 11-cl-BBQ
Summary of the method: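 Values are fold luciferase induction relative to vehicle (0.1% DMSO), read by luminometry of lysates from Hepa1 cells carrying an AhRE-driven luciferase reporter. Cells were seeded at 1×10^4 per well, grown overnight and treated with compound before lysis.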

[8] = tested on: T1D; details: murine model; cited from earlier work
[9] = acute or chronic treatment of mice, therapeutic dose; cited from earlier work
[10] = tested on: GVHD; details: murine model; cited from earlier work

aryl hydrocarbon receptor (AhR), sequence (P30561 10-805): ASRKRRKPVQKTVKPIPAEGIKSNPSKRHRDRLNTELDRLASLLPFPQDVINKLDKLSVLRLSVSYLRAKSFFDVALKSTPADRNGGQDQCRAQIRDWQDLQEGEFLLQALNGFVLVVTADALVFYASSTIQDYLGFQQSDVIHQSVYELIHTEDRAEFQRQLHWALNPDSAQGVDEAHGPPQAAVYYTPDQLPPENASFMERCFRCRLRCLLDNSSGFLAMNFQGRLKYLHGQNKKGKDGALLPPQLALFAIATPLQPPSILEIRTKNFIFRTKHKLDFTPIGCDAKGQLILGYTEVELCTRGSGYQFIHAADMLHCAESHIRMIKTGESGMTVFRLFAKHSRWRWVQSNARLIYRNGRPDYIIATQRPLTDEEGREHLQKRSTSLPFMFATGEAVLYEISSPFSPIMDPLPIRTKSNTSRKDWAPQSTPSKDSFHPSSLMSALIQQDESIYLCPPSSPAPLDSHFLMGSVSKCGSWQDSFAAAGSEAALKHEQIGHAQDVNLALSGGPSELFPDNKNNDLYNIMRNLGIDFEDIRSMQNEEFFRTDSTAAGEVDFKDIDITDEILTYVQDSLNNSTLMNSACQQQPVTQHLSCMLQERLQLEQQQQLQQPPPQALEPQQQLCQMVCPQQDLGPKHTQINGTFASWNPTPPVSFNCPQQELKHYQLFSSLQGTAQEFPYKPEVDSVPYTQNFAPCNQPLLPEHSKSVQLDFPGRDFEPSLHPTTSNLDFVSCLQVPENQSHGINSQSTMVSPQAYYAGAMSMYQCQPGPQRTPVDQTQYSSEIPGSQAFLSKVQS
aryl hydrocarbon receptor (AhR), sequence (P53762 whole entry partner): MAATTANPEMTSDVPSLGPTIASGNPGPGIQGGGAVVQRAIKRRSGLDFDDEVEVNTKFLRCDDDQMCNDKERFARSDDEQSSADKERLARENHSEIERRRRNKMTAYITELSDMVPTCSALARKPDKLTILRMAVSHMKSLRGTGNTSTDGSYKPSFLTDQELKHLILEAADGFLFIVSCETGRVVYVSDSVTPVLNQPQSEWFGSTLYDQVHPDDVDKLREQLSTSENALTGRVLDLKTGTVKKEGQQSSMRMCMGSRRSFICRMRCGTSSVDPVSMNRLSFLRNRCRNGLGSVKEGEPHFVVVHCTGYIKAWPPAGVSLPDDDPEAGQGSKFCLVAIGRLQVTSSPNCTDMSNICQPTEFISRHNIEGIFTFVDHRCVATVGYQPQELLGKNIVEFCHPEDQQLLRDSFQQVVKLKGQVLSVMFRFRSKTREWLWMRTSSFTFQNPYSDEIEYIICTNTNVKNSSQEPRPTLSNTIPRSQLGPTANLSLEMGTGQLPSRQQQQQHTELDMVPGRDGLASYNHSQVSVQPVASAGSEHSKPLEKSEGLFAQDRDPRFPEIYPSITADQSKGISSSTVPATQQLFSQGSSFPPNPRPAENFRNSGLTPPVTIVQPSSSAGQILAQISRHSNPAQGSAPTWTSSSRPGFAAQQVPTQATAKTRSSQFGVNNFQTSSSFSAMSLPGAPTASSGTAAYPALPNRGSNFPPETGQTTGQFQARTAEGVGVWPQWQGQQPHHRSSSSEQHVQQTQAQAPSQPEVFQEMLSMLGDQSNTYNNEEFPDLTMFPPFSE

Row | SMILES | Rem @ MLM × 30 min [1] | Rem @ RLM × 30 min [2] | half-life at 1 μM [3] | microsomal CLint at 1 μM [3] | half-life at 1 μM [4] | microsomal CLint at 1 μM [4] | half-life at 1 μM [5] | microsomal CLint at 1 μM [5] | Rem @ HLM × 30 min [6] | Fold @ 1 nM [7] | Fold @ 100 nM [7] | Fold @ 10 uM [7] | Fold relative to benchmark @ 100 nM [7] | development of T1D [8] | overt toxicity [9] | development of GVHD [10]
1 | O=C(c1ccc2ccccc2c1)c1c[nH]c2ccc(Cl)cc12 [Compound 885] | 45.1% | 50.2% | 30.7 min | 45.1 µL/min/mg | 36.8 min | 37.7 µL/min/mg | 27.5 min | 50.4 µL/min/mg | 58.1% | 1 fold | 1 fold | 1 fold | 0.02 fold |  |  | 
2 | O=C(c1cccc2ccccc12)c1c[nH]c2cc(Cl)c(Cl)cc12 [Compound 434] | 10.6% | 41.6% | 28 min | 49.6 µL/min/mg | 48.7 min | 28.5 µL/min/mg | 10.7 min | 129 µL/min/mg | 63.4% | 1 fold | 1 fold | 9 fold | 0.03 fold |  |  | 
3 | O=c1c2cccc3cccc(c32)c2nc3cc(Cl)ccc3n12 [Compound 11-Cl-BBQ, 11-chloro-7H-benzimidazo[2,1-a]benzo[de]-Iso-quinolin-7-one] |  |  |  |  |  |  |  |  |  |  |  |  |  | suppress the development of T1D | no overt toxicity | suppress the development of T1D and GVHD
